In article PMC2993883 (Journal of Neural Transmission, 2010):

Experiments:
Assay in all cases: IMAP fluorescence polarization PDE assay, 8-point IC50
Assay type in all cases: biochemical
[1] = target: PDE-3A (Homo sapiens, UniProt Q14432)
[2] = target: PDE-2A3 (Homo sapiens, UniProt O00408)
[3] = target: PDE-4A1 (Homo sapiens, UniProt P27815)
[4] = target: PDE-10A1 (Homo sapiens, UniProt Q9Y233)
Chain of PDE-10A1 (Q9Y233 1-779 isoform Q9Y233-1): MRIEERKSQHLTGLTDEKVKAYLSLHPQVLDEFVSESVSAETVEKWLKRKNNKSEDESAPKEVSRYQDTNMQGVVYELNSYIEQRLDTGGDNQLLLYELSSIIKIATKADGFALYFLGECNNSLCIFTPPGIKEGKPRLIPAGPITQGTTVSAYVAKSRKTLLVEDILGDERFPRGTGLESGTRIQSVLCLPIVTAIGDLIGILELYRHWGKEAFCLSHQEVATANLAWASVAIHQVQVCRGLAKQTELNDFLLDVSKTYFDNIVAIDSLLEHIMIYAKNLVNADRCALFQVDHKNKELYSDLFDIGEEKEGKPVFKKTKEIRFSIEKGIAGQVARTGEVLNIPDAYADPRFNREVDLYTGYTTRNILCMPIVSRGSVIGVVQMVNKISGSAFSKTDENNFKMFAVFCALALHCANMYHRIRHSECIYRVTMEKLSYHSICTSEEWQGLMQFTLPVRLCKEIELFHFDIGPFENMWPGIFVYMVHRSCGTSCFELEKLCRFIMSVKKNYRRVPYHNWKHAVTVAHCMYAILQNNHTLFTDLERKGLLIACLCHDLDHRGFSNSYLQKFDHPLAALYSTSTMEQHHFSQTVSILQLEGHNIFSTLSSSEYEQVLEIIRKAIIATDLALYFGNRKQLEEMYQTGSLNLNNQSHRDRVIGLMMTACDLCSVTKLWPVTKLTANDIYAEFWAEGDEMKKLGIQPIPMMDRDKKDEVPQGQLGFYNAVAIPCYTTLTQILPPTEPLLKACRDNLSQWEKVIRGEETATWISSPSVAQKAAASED

Chain of PDE-3A (Q14432 whole entry): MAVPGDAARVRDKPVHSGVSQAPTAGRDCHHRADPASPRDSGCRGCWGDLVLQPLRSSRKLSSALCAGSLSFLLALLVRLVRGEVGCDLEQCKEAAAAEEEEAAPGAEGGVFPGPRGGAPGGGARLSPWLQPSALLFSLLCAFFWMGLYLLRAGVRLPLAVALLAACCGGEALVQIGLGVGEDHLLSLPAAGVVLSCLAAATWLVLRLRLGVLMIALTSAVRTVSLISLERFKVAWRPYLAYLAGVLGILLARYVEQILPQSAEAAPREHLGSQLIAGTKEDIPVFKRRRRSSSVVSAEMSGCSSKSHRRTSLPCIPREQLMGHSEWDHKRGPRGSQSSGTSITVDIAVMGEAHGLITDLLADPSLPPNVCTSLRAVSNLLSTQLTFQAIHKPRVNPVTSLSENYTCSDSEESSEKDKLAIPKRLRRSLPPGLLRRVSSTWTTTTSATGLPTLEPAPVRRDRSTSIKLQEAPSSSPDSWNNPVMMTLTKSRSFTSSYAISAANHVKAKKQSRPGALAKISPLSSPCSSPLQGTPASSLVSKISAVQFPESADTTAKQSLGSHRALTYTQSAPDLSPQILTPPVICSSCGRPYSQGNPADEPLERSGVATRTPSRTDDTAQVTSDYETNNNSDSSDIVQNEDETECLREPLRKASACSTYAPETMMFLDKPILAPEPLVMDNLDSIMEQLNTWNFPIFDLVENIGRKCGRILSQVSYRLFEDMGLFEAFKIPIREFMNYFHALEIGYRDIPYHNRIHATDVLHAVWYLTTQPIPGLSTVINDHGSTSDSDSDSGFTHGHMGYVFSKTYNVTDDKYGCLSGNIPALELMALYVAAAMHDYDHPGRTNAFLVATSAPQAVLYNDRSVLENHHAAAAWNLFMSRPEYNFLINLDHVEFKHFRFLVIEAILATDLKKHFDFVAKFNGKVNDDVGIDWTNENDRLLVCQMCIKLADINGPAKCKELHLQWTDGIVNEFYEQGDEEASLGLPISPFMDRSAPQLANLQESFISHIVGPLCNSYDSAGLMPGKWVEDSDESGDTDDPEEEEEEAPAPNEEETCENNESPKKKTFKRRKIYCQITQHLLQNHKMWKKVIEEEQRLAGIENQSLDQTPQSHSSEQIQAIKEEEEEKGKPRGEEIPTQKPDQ
Chain of PDE-4A1 (P27815 265-886 limits assumed): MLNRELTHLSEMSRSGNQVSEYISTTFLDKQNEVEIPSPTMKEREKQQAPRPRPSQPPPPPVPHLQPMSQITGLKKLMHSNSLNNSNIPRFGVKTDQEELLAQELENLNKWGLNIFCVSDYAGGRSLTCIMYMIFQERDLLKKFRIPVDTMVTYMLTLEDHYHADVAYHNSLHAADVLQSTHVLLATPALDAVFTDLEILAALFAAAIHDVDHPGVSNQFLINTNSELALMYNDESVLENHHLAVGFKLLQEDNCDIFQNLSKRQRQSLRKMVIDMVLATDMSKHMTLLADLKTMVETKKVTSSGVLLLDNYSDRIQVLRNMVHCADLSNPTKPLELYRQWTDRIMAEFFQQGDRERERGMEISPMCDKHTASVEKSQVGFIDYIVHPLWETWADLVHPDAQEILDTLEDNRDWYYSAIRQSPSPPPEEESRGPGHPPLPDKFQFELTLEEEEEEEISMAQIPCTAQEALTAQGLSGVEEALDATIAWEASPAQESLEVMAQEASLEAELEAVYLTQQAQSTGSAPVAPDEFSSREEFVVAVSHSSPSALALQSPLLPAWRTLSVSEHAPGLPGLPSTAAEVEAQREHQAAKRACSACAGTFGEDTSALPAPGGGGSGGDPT
Chain of PDE-2A3 (O00408 2-941): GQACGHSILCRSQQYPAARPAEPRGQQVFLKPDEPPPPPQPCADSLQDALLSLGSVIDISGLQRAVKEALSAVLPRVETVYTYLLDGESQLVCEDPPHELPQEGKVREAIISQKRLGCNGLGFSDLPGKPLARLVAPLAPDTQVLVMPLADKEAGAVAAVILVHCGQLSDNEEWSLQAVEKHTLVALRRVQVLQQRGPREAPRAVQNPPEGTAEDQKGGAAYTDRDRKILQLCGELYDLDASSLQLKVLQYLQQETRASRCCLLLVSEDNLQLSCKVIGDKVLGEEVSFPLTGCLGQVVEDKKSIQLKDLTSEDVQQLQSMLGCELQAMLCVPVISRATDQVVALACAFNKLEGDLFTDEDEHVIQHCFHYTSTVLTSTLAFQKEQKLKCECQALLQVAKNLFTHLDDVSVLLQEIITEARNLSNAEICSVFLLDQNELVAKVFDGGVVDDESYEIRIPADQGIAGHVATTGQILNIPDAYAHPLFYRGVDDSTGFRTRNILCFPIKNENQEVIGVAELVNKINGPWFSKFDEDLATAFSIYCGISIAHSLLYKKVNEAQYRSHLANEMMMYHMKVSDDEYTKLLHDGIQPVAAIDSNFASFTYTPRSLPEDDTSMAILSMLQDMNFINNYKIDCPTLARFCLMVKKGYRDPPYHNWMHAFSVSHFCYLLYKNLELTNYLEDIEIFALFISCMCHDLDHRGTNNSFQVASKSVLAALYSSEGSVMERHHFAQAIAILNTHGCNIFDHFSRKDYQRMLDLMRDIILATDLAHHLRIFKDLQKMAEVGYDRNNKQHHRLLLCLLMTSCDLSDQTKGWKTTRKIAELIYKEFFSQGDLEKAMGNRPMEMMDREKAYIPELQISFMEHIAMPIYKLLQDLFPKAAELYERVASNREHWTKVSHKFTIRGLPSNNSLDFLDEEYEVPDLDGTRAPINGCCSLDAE

CCC1C(C)=NN=C(c2ccc(OC)c(OC)c2)c2cc(OC)c(OC)cc21 (racemic) [tofisopam, 1-(3,4-dimethoxyphenyl)-5-ethyl-7,8-dimethoxy-4-methyl-5H-2,3-benzodiazepine]
IC50 [1]: 1980 nM
IC50 [2]: 2110 nM
IC50 [3]: 420 nM
IC50 [4]: 920 nM
